Numbers after ± are expanded uncertainties.
Tests used:
[1] = 101.33 kPa, Liquid, Vibrating tube method
[2] = activity coefficient (dimensionless); of the first substance listed, at infinite dilution; xn = mol fraction of the nth substance listed; details: 101 kPa, Liquid, Chromatography, x1 = 0

| Compound | activity coefficient ([2]; 323.15 K) | activity coefficient ([2]; 333.15 K) | activity coefficient ([2]; 343.15 K) | activity coefficient ([2]; 353.15 K) | activity coefficient ([2]; 373.15 K) | also measured |
| --- | --- | --- | --- | --- | --- | --- |
| CC1(C)[C@@H]2CC[C@@]1(CS(=O)(=O)[O-])C(=O)C2.CCCCCCCCCCCCCC[N+](CCCCCC)(CCCCCC)CCCCCC |  |  |  |  |  | mass density ([1]; 298.55 K): 963.8 ± 0.3 kg/m3; mass density ([1]; 313.45 K): 953.4 ± 0.3 kg/m3; mass density ([1]; 323.45 K): 946.1 ± 0.3 kg/m3; mass density ([1]; 333.25 K): 939.1 ± 0.3 kg/m3 |
| CCCCCCCCCCCCCC[N+](CCCCCC)(CCCCCC)CCCCCC.C[C@H](O)C(=O)[O-] [N,N,N-trihexyl-1-tetradecanaminium (2S)-2-hydroxypropanoate] |  |  |  |  |  | mass density ([1]; 298.55 K): 894.8 ± 0.3 kg/m3; mass density ([1]; 313.45 K): 885.7 ± 0.3 kg/m3; mass density ([1]; 323.45 K): 879.9 ± 0.3 kg/m3; mass density ([1]; 333.25 K): 874.5 ± 0.3 kg/m3 |
| CC(C)O [propan-2-ol] + CC1(C)[C@@H]2CC[C@@]1(CS(=O)(=O)[O-])C(=O)C2.CCCCCCCCCCCCCC[N+](CCCCCC)(CCCCCC)CCCCCC | 0.12 ± 0.03 | 0.2 | 0.32 ± 0.03 |  |  |  |
| c1ccncc1 [pyridine] + CC1(C)[C@@H]2CC[C@@]1(CS(=O)(=O)[O-])C(=O)C2.CCCCCCCCCCCCCC[N+](CCCCCC)(CCCCCC)CCCCCC | 0.32 ± 0.03 | 0.49 ± 0.04 | 0.68 ± 0.05 |  |  |  |
| c1ccncc1 [pyridine] + CCCCCCCCCCCCCC[N+](CCCCCC)(CCCCCC)CCCCCC.C[C@H](O)C(=O)[O-] | 0.34 ± 0.03 |  |  | 0.34 ± 0.03 | 0.34 ± 0.03 |  |
| ClC(Cl)(Cl)Cl [tetrachloromethane] + CC1(C)[C@@H]2CC[C@@]1(CS(=O)(=O)[O-])C(=O)C2.CCCCCCCCCCCCCC[N+](CCCCCC)(CCCCCC)CCCCCC | 0.35 ± 0.03 | 0.51 ± 0.04 | 0.75 ± 0.05 |  |  |  |
| ClC(Cl)(Cl)Cl [tetrachloromethane] + CCCCCCCCCCCCCC[N+](CCCCCC)(CCCCCC)CCCCCC.C[C@H](O)C(=O)[O-] | 0.24 ± 0.03 |  |  | 0.26 ± 0.03 | 0.29 ± 0.03 |  |
| c1ccsc1 [thiophene] + CC1(C)[C@@H]2CC[C@@]1(CS(=O)(=O)[O-])C(=O)C2.CCCCCCCCCCCCCC[N+](CCCCCC)(CCCCCC)CCCCCC | 0.28 ± 0.03 | 0.42 ± 0.04 | 0.56 ± 0.04 |  |  |  |
| c1ccsc1 [thiophene] + CCCCCCCCCCCCCC[N+](CCCCCC)(CCCCCC)CCCCCC.C[C@H](O)C(=O)[O-] | 0.28 ± 0.03 |  |  | 0.29 ± 0.03 | 0.3 ± 0.1 |  |
| Cc1ccccc1 [toluene] + CC1(C)[C@@H]2CC[C@@]1(CS(=O)(=O)[O-])C(=O)C2.CCCCCCCCCCCCCC[N+](CCCCCC)(CCCCCC)CCCCCC | 0.41 ± 0.03 | 0.63 ± 0.04 | 0.88 ± 0.06 |  |  |  |
| Cc1ccccc1 [toluene] + CCCCCCCCCCCCCC[N+](CCCCCC)(CCCCCC)CCCCCC.C[C@H](O)C(=O)[O-] | 0.46 ± 0.04 |  |  | 0.46 ± 0.04 | 0.48 ± 0.04 |  |
| ClC(Cl)Cl [trichloromethane] + CC1(C)[C@@H]2CC[C@@]1(CS(=O)(=O)[O-])C(=O)C2.CCCCCCCCCCCCCC[N+](CCCCCC)(CCCCCC)CCCCCC | 0.05 | 0.09 ± 0.03 | 0.15 ± 0.03 |  |  |  |
| ClC(Cl)Cl [trichloromethane] + CCCCCCCCCCCCCC[N+](CCCCCC)(CCCCCC)CCCCCC.C[C@H](O)C(=O)[O-] | 0.05 |  |  | 0.04 | 0.03 |  |
| CCN(CC)CC [triethylamine] + CC1(C)[C@@H]2CC[C@@]1(CS(=O)(=O)[O-])C(=O)C2.CCCCCCCCCCCCCC[N+](CCCCCC)(CCCCCC)CCCCCC | 0.84 ± 0.05 | 1.23 ± 0.08 | 1.55 ± 0.1 |  |  |  |
| CCCCCCCCCCC [undecane] + CC1(C)[C@@H]2CC[C@@]1(CS(=O)(=O)[O-])C(=O)C2.CCCCCCCCCCCCCC[N+](CCCCCC)(CCCCCC)CCCCCC | 1.62 ± 0.11 | 2.84 ± 0.19 | 4.32 ± 0.29 |  |  |  |
| CCCCCCCCCCC [undecane] + CCCCCCCCCCCCCC[N+](CCCCCC)(CCCCCC)CCCCCC.C[C@H](O)C(=O)[O-] | 1.67 ± 0.11 |  |  | 1.81 ± 0.12 | 1.75 ± 0.12 |  |
